{
  "source": "paper PMC10001202",
  "about": "“Preparation, Identification and Preliminary Application of the Fenvalerate Monoclonal Antibody in Six Kinds of Dark Tea” (Foods, 2023)",
  "format_in_all_cases": "binding, BALB/c mice",
  "key": {"McAb 1B6": {"tested_on": "McAb 1B6", "test": "ic-ELISA cross-reactivity, McAb 1B6", "protocol": "(§1) The cross-reactivities with nine permethrin pesticides (deltamethrin, permethrin, cypermethrin, bifenthrin, fenpermethrin, fluobenzene, beta-cyhalothrin, dextrofenthrin, cypermethrin) were obtained, and McAb was determined to clarify the specificity of the monoclonal antibody prepared. The IC50 of the nine permethrin pesticides was measured by the ic-ELISA with the obtained McAb and the coating antigen. The cross-reactivity was calculated with the following Formula (1):Cross-reactivity (CR, %) = IC50 of Fen/IC50 of Fen analogs × 100%(1)"}, "McAb 2A11": {"tested_on": "McAb 2A11", "test": "ic-ELISA cross-reactivity, McAb 2A11", "protocol": "as §1"}, "McAb 5G2": {"tested_on": "McAb 5G2", "test": "ic-ELISA cross-reactivity, McAb 5G2", "protocol": "as §1"}, "[1]": {"conditions": "IC50 of Fen/IC50 of analog × 100%"}},
  "data": [
    {"smiles": "CC1(C)C(C(=O)OC(C#N)c2cccc(Oc3ccccc3)c2)C1(C)C", "note": "(stereo not drawn) [Fenpropathrin]", "values": [
      {"measurement": "IC50", "setting": "McAb 1B6", "result": ">10,000 ng/mL"},
      {"measurement": "IC50", "setting": "McAb 2A11", "result": ">10,000 ng/mL"},
      {"measurement": "IC50", "setting": "McAb 5G2", "result": ">10,000 ng/mL"}
    ]},
    {"smiles": "Cc1c(COC(=O)[C@@H]2[C@H](/C=C(\\Cl)C(F)(F)F)C2(C)C)cccc1-c1ccccc1", "note": "(racemic) [Bifenthrin]", "values": [
      {"measurement": "IC50", "setting": "McAb 1B6", "result": ">10,000 ng/mL"},
      {"measurement": "IC50", "setting": "McAb 2A11", "result": ">10,000 ng/mL"},
      {"measurement": "IC50", "setting": "McAb 5G2", "result": ">10,000 ng/mL"}
    ]},
    {"smiles": "CC1(C)C(C=C(Cl)c2ccc(Cl)cc2)C1C(=O)OC(C#N)c1ccc(F)c(Oc2ccccc2)c1", "note": "(stereo not drawn) [Flumethrin]", "values": [
      {"measurement": "IC50", "setting": "McAb 1B6", "result": ">10,000 ng/mL"},
      {"measurement": "IC50", "setting": "McAb 2A11", "result": ">10,000 ng/mL"},
      {"measurement": "IC50", "setting": "McAb 5G2", "result": ">10,000 ng/mL"}
    ]},
    {"smiles": "CC1(C)C(C=C(Cl)Cl)C1C(=O)OCc1cccc(Oc2ccccc2)c1", "note": "(stereo not drawn) [Permethrin]", "values": [
      {"measurement": "IC50", "setting": "McAb 1B6", "result": ">10,000 ng/mL"},
      {"measurement": "IC50", "setting": "McAb 2A11", "result": ">10,000 ng/mL"},
      {"measurement": "IC50", "setting": "McAb 5G2", "result": ">10,000 ng/mL"}
    ]},
    {"smiles": "CC1(C)[C@H](C(=O)O[C@H](C#N)c2cccc(Oc3ccccc3)c2)[C@@H]1/C=C(\\Cl)C(F)(F)F", "note": "(racemic) [Lambda-cyhalothrin]", "values": [
      {"measurement": "IC50", "setting": "McAb 1B6", "result": ">10,000 ng/mL"},
      {"measurement": "IC50", "setting": "McAb 2A11", "result": ">10,000 ng/mL"},
      {"measurement": "IC50", "setting": "McAb 5G2", "result": ">10,000 ng/mL"}
    ]},
    {"smiles": "CC(C)C(C(=O)OC(C#N)c1cccc(Oc2ccccc2)c1)c1ccc(Cl)cc1", "note": "(stereo not drawn) [Fenvalerate]", "values": [
      {"measurement": "IC50", "setting": "McAb 1B6", "result": 36.6, "unit": "ng/mL"},
      {"measurement": "CR%", "setting": "McAb 1B6; [1]", "result": 100, "unit": "%"},
      {"measurement": "IC50", "setting": "McAb 2A11", "result": 24.29, "unit": "ng/mL"},
      {"measurement": "CR%", "setting": "McAb 2A11; [1]", "result": 100, "unit": "%"},
      {"measurement": "IC50", "setting": "McAb 5G2", "result": 21.65, "unit": "ng/mL"},
      {"measurement": "CR%", "setting": "McAb 5G2; [1]", "result": 100, "unit": "%"}
    ]},
    {"smiles": "CC1(C)C(C=C(Cl)Cl)C1C(=O)OC(C#N)c1cccc(Oc2ccccc2)c1", "note": "(stereo not drawn) [Cypermethrin]", "values": [
      {"measurement": "IC50", "setting": "McAb 1B6", "result": ">10,000 ng/mL"},
      {"measurement": "IC50", "setting": "McAb 2A11", "result": ">10,000 ng/mL"},
      {"measurement": "IC50", "setting": "McAb 5G2", "result": ">10,000 ng/mL"}
    ]},
    {"smiles": "CC(C)=CC1C(C(=O)OCc2cccc(Oc3ccccc3)c2)C1(C)C", "note": "[D-Phenothrin]", "values": [
      {"measurement": "IC50", "setting": "McAb 1B6", "result": ">10,000 ng/mL"},
      {"measurement": "IC50", "setting": "McAb 2A11", "result": ">10,000 ng/mL"},
      {"measurement": "IC50", "setting": "McAb 5G2", "result": ">10,000 ng/mL"}
    ]},
    {"smiles": "CC1(C)C(C=C(Cl)Cl)C1C(=O)OC(C#N)c1ccc(F)c(Oc2ccccc2)c1", "note": "(stereo not drawn) [Cyfluthrin]", "values": [
      {"measurement": "IC50", "setting": "McAb 1B6", "result": ">10,000 ng/mL"},
      {"measurement": "IC50", "setting": "McAb 2A11", "result": ">10,000 ng/mL"},
      {"measurement": "IC50", "setting": "McAb 5G2", "result": ">10,000 ng/mL"}
    ]},
    {"smiles": "CC1(C)[C@H](C(=O)O[C@H](C#N)c2cccc(Oc3ccccc3)c2)[C@@H]1C=C(Br)Br", "note": "[Deltamethrin]", "values": [
      {"measurement": "IC50", "setting": "McAb 1B6", "result": ">10,000 ng/mL"},
      {"measurement": "IC50", "setting": "McAb 2A11", "result": ">10,000 ng/mL"},
      {"measurement": "IC50", "setting": "McAb 5G2", "result": ">10,000 ng/mL"}
    ]}
  ]
}
